Seven compounds from patent US20050215490A1, “Polyene polyketides and methods of treating bacterial infections” (Ecopia BioSciences, Inc., priority 2003, published 2005) can be followed below.

The term MIC denotes the lowest concentration that inhibits growth of the organism. The EC50 is the midpoint of the concentration-response curve.

Values after ≈ are worked out from the molar mass of the structure shown. Read-outs that look alike come from different tables or passages of the source.

Assay type in all cases: cell-based
In data set [1] the test system is Staphylococcus aureus NRRL B-313 (ATCC™ 6538P). Nature of the data set: MIC at different pH. On the procedure: Antibacterial activitiy of Compounds.3, 4, 5, 6 and 7 are accomplished using the same method in a panel of bacterial strains and Vancomycin as positive control.
Antibacterial efficacy of Compounds 1, 2, 3, 4, 5 and 6 on bacterial strain Staphylococcus aureus NRRL B-313 (ATCC™ 6538P) was determined at different pH concentrations.

The subject of data set [2] is Bacillus megaterium (ATCC™ 14581). Nature of the data set: MIC, broth microdilution (NCCLS M7-A5). Particulars: Priestia megaterium, ATCC14581, 18 h. On the procedure:
(§1) Antibacterial activity of Compounds 1 and 2 (Table 4) was measured by determining the minimal inhibitory concentration (MIC) necessary to obtain a complete inhibition of bacteria growth in eight indicator strains, namely Staphylococcus aureus (ATCC™ 6538P), Staphylococcus aureus MRS3 (ATCC™ 700699), Staphylococcus epidermidis (ATCC™ 12228), Bacillus subtilis (ATCC™ 23857), Bacillus megaterium (ATCC™ 14581), Enterococcus faecalis VRE-1 (ATCC™ 29212), Enterococcus faecalis VRE-2 (ATCC™ 51299) and Micrococcus luteus (ATCC™ 9341). Indicator strains preparation and MIC determination were performed according to the National Committee for Clinical Laboratory Standards (NCCLS) guideline M7-A5 Methods for Dilution Antimicrobial Susceptibility Tests for Bacteria That Grow Aerobically; Approved Standard-Fifth Edition. (NCCLS document M7-A5, ISBN 1-56238-394-9; NCCLS, 940 West Valley Road, Suite 1400, Wayne, Pa. 19087-1898 USA), the content of which is incorporated herein by reference.
(§2) Compounds 1 and 2 were prepared as 100× stock solution in DMSO, with concentrations ranging from 3.2 mg/ml to 0.00625 mg/ml (a two-fold dilution series over […]). An aliquot of each 100× stock solution was diluted 50-fold in test medium described below to give a set of ten (10) 2× solutions ranging from 64 to 0.125 μg/mL. 50 μl of each of the ten 2× solutions was aliquoted into the corresponding well of a 12-well row, with the final well reserved for medium alone control. Each test was made in duplicate.
(§3) Vancomycin (Sigma™) used as positive control compounds, was prepared as 2× stock solutions in sterile, double-distilled water (ddH2O) ranging from 64 μg/ml to […] (a two-fold dilution series over 10 points). An aliquot of 50 μl corresponding to each concentration (at 2×) was then transferred to 96-well microplates to obtain a series of eleven two-fold dilutions.
(§4) An isolated colony of each of the eight indicator strains was used to inoculate tubes containing 3 ml of test medium. Mueller-Hinton test medium was used for Staphylococcus aureus (ATCC™ 6538P), Staphylococcus aureus MRS3 (ATCC™ 700699), Staphylococcus epidermidis (ATCC™ 12228), Bacillus subtilis (ATCC™ 23857), Bacillus megaterium (ATCC™ 14581) and Micrococcus luteus (ATCC™ 9341) indicator strains, and BHI (Brain-Heart Infusion broth) test medium was used for Enterococcus faecalis VRE-1 (ATCC™ 29212) and Enterococcus faecalis VRE-2 (ATCC™ 51299) indicator strains. Cells were grown overnight at 28° C. with shaking. Inoculum density for each indicator strain was adjusted to OD600=0.1 in 5 ml 0.85% saline, then further diluted 1/100 in appropriate medium. 50 μl of the final dilution (in test medium) of each indicator strain was added to each well of a 12-well row. This brings the final dilution of the test article or control compound in solution to 1×. The final inoculum is approximately 5×10^5 CFU/ml.
(§5) The indicator strains were incubated with 11 concentrations of each of Compounds 1 and 2, Vancomycin (Sigma™) control compound and one media alone control. For MIC determination, assay plates were incubated at 35° C. for 18 hours.
A general note: Broth dilution looks for growth in wells or tubes with falling amounts of substance.

Data set [3] relates to Bacillus subtilis (ATCC™ 23857). The experiment in a line: MIC, broth microdilution (NCCLS M7-A5). The settings on record: ATCC23857, 18 h. On the procedure: as §1, §2, §3, §4, §5
In data set [4] the test system is Enterococcus faecalis VRE-1 (ATCC™ 29212). The experiment in a line: MIC, broth microdilution (NCCLS M7-A5). Particulars: 18 h. How it is done:
as §1, §2, §3, §4, §5

Data set [5] relates to Enterococcus faecalis VRE-2 (ATCC™ 51299). Nature of the data set: MIC, broth microdilution (NCCLS M7-A5). The settings on record: 18 h. How it is done:
as §1, §2, §3, §4, §5

Data set [6] deals with Micrococcus luteus (ATCC™ 9341). Nature of the data set: MIC, broth microdilution (NCCLS M7-A5). The settings on record: ATCC9341, 18 h. On the procedure: as §1, §2, §3, §4, §5
Data set [7] relates to Staphylococcus aureus (ATCC™ 6538P). Nature of the data set: MIC, broth microdilution (NCCLS M7-A5). Particulars: ATCC6538P, 18 h. On the procedure:
as §1, §2, §3, §4, §5

Data set [8] has as its system Staphylococcus aureus MRS3 (ATCC™ 700699). The experiment in a line: MIC, broth microdilution (NCCLS M7-A5). Particulars: ATCC700699, 18 h. How it is done: as §1, §2, §3, §4, §5
Data set [9] deals with Staphylococcus epidermidis (ATCC™ 12228). Nature of the data set: MIC, broth microdilution (NCCLS M7-A5). The settings on record: ATCC12228, 18 h. How it is done:
as §1, §2, §3, §4, §5

The nature of data set [10]: in vitro. Particulars: sheep. On the procedure:
A. Toxicity: Acute toxicities were determined using CD-1 female mice (supplied by Charles River Laboratories, Wilmington, Mass.) having a bodyweight of 18-25 g, and about 6 weeks of age. Compounds 1 and 2 at doses ranging from 1 to 70 mg/kg (formulated in 20% propylene glycol/water for a total volume of 10 μL/g of weight) were administered intraperitoneal (i.p.) and intravenous (i.v.) to groups of 5 mice (5 mice per concentration, per mode of administration). Two groups of 3 mice were injected with vehicle only. Mice were observed immediately after injection, within 4 hours and once a day for the subsequent days. Acute toxicity studies of Compound 1 in mice indicated no observable effect and high dose tolerability: 70 mg/kg intraperitoneal and 50 mg/kg intravenous (an MTD of 250 mg/kg was also determined by oral administration). […] In vitro Haemolytic activity results are also shown in Table 7, along with the in vivo toxicity and efficacy of Compound 1.

Where [11] appears, read: S. aureus ATCC 6538P, pH 7.0, read-out: MIC.
[12] abbreviates: S. aureus ATCC 6538P, pH 5.0, read-out: MIC.
Where [13] appears, read: S. aureus ATCC 6538P, pH 6.0, read-out: MIC.

With `C\C(=C/C=C/C=C/C=C/C=C/C(C)C(OC1OC(C(=O)O)C(O)C(O)C1O)/C(C)=C/C(C)CCC/C=C/C(C)C/C=C/CCCN(C)C(=N)N)C(=O)O` (stereo not shown) [Compound 7, 6-[1-(11-carboxy-1-methyldodeca-2,4,5,8,10-pentaenyl)-2,4,10-trimethyl-16-(N-methylguanidino)-hexadeca-2,8,12-trienyloxy]-3,4,5-trihydroxy-tetrahydropyran-2-carboxylic acid], in data set [1] (setting [11]), the MIC was in the range of 32 to 64 µg/mL (≈ 43.1 to 86.3 µM).
In the case of `CN[C@H](CC(C)C)C(=O)N[C@H]1C(=O)N[C@@H](CC(N)=O)C(=O)N[C@H]2C(=O)N[C@H]3C(=O)N[C@H](C(=O)N[C@H](C(=O)O)c4cc(O)cc(O)c4-c4cc3ccc4O)[C@H](O)c3ccc(c(Cl)c3)Oc3cc2cc(c3O[C@@H]2O[C@H](CO)[C@@H](O)[C@H](O)[C@H]2O[C@H]2C[C@](C)(N)[C@H](O)[C@H](C)O2)Oc2ccc(cc2Cl)[C@H]1O` [Vancomycin, reference compound], the MIC in [2] was 0.125 µg/mL (≈ 0.0863 µM); in data set [3], 0.25 µg/mL (≈ 0.173 µM); in data set [4], 4 µg/mL (≈ 2.76 µM); in data set [5], 8 to 16 µg/mL (≈ 5.52 to 11 µM); in data set [6], 1 µg/mL (≈ 0.69 µM); in data set [7], 2 µg/mL (≈ 1.38 µM). For the same compound, the MIC in data set [8] was 4 µg/mL (≈ 2.76 µM); in data set [9], 2 µg/mL (≈ 1.38 µM); in [1] (pH 5) it was 1 µg/mL (≈ 0.69 µM); in data set [1] (pH 6), 1 µg/mL (≈ 0.69 µM); in data set [1] (pH 7) it was 1 µg/mL (≈ 0.69 µM).
As for `COC1=C(NC(=O)/C(C)=C/C=C/C=C/C=C/C=C/C(C)C(OC2OC(C(=O)O)C(O)C(O)C2O)/C(C)=C/C(C)CCC/C=C/C(C)C/C=C/CCCN(C)C(=N)N)C(=O)CC1` (stereo not shown) [Compound 4, 3,4,5-trihydroxy-6-[1-[11-(2-methoxy-5-oxo-cyclopent-1-enylcarbamoyl)-1-methyldodeca-2,4,6,8,10-pentaenyl]-2,4,10-trimethyl-16-(N-methyl-guanidino)-hexadeca-2,8,12-trienyloxy]-tetrahydropyran-2-carboxylic acid], the MIC in [1] (setting [12]), in [1] (setting [13]) and in data set [1] (setting [11]) was 2 µg/mL (≈ 2.35 µM) each time.
Take `CC(=O)NC(=N)N(C)CCC/C=C/CC(C)/C=C/CCCC(C)/C=C(\C)C(OC1OC(C(=O)O)C(O)C(O)C1O)C(C)/C=C/C=C/C=C/C=C/C=C(\C)C(=O)NC1=C(O)CCC1=O` (stereo not shown) [Compound 6, 6-{16-(N′-acetyl-N-methylguanidino)-1-[11-(2-hydroxy-5-oxocyclopent-1-enylcarbamoyl)-1-methyldodeca-2,4,6,8,10-pentaenyl]-2,4,10-trimethylhexadeca-2,8,12-trienyloxy}-3,4,5-trihydroxytetrahydropyran-2-carboxylic acid]: the MIC came to 0.25 µg/mL (≈ 0.284 µM) in data set [1] (setting [12]), 0.5 µg/mL (≈ 0.569 µM) in [1] (setting [13]) and 2 µg/mL (≈ 2.28 µM) in data set [1] (setting [11]).
Taken in the same sequence, the figures for `COC(=O)C1OC(OC(C(C)=CC(C)CCCC=CC(C)CC=CCCCN(C)C(=N)N)C(C)C=CC=CC=CC=CC=C(C)C(=O)NC2=C(OC)CCC2=O)C(O)C(O)C1O` (stereo not shown) [Compound 5, 3,4,5-trihydroxy-6-[1-[11-(2-methoxy-5-oxo-cyclopent-1-enylcarbamoyl)-1-methyldodeca-2,4,6,8,10-pentaenyl]-2,4,10-trimethyl-16-(N-methyl-guanidino)-hexadeca-2,8,12-trienyloxy]-tetrahydropyran-2-carboxylic acid methyl ester] were 2 µg/mL (≈ 2.31 µM), 4 µg/mL (≈ 4.62 µM) and 4 µg/mL (≈ 4.62 µM).
On to `COC(=O)C1OC(OC(/C(C)=C/C(C)CCC/C=C/C(C)C/C=C/CCCN(C)C(=N)N)C(C)/C=C/C=C/C=C/C=C/C=C(\C)C(=O)NC2=C(O)CCC2=O)C(O)C(O)C1O` (stereo not shown) [Compound 3, 3,4,5-trihydroxy-6-[1-[11-(2-hydroxy-5-oxocyclopent-1-enylcarbamoyl)-1-methyldodeca-2,4,6,8,10-pentaenyl]-2,4,10-trimethyl-16-(N-methyl-guanidino)-hexadeca-2,8,12-trienyloxy]-tetrahydropyran-2-carboxylic acid methyl ester], for which the MIC in [1] (setting [12]) was 2 µg/mL (≈ 2.35 µM); in data set [1] (setting [13]), 4 to 8 µg/mL (≈ 4.7 to 9.4 µM); in data set [1] (setting [11]), 16 µg/mL (≈ 18.8 µM).
The compound `C[C@@H]1[C@H](O)[C@@H](C)/C=C/C=C/C=C/C=C/C=C/C=C/C=C/[C@H](O[C@@H]2O[C@H](C)[C@@H](O)[C@H](N)[C@@H]2O)C[C@@H]2O[C@](O)(C[C@@H](O)C[C@@H](O)[C@H](O)CC[C@@H](O)C[C@@H](O)CC(=O)O[C@H]1C)C[C@H](O)[C@H]2C(=O)O` [Amphotericin, reference compound] registered an EC50 in data set [10] of 3 µg/mL (≈ 3.25 µM).
